Measurements taken from paper PMC4537050, “A long pentraxin-3-derived pentapeptide for the therapy of FGF8b-driven steroid hormone-regulated cancers” (Oncotarget, 2015).

Tests used:
FGF8b = molecular target: T1, FGF8b (Homo sapiens, UniProt P55075); assay: SPR analysis of peptide binding to immobilized FGF8b; set-up: purchased PeproTech; settings: for FGF8b binding activity (in words): SPR on the FGF8b-coated sensor chip; for FGF8b binding (Kd) / Kd: SPR, immobilized FGF8b, mean ± SEM
T1 sequence (P55075 23-215 isoform P55075-3 limits assumed): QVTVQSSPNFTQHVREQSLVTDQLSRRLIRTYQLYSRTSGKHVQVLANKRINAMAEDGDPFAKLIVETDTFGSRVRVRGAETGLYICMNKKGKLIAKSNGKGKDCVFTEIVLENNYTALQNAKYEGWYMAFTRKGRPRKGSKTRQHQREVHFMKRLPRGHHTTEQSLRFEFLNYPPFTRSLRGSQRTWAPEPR
Experimental: A BIAcore X-100 apparatus (BIAcore Inc., Piscataway, NJ, USA) was used to set up the following experimental models. ARPCA and all the peptides mentioned in the present work were analyzed for their capacity to directly bind to immobilized FGF8b. To this purpose, FGF8b (20 μg/ml in 10 mM sodium acetate, pH 6.0) was allowed to react with a flow cell of a CM5 sensor chip that was previously activated with a mixture of 0.2 M N-ethyl-N′-(3-dimethylaminopropyl)-carbodiimide hydrochloride and 0.05 M N-hydroxysuccinimide (35 μl, flow rate 10 μl/min). After ligand immobilization, matrix neutralization was performed with 1.0 M ethanolamine (pH 8.5) (35 μl, flow rate 10 μl/min) and the activated/deactivated dextran was used as reference (control) system. Increasing concentrations of ARPCA (ranging between 8 μM and 2000 μM) were injected over the FGF8b-coated sensor chip and the response was recorded as a function of time tracking the SPR intensity change upon binding progression. Injection lasted for 4 min (flow rate 30 μl/min) to allow peptide association to immobilized FGF8b and was followed by 10 min of dissociation; each run was performed in HBS and the sensor chip was regenerated with 10 mM NaOH. […] Binding isotherm points were fitted with the Langmuir equation for monovalent binding. This allowed to evaluate the mass surface dissociation constant, Kd, and the scaling parameter that relates the SPR signal with the extent of binding, as the free parameters of the fitting. The errors on these parameters were assigned as a result of the fitting algorithm (95% confidence bounds). The best-fitting procedure was performed with the SigmaPlot 11.0 software package (Systat Software Inc.). Others FGFs were dissolved in 10mM sodium acetate at optimal pH, immobilized on CM5 sensorchips and tested for their capacity to bind ARPCA as described above.

HUVECs = assay: HUVEC proliferation in response to FGF8b; type: cell-based, human; settings: 30 ng/ml FGF8b, 48 h, concentrations as high as 300 μM
Experimental: (§1) HUVECs were seeded at 18000 cells/cm^2 in medium containing 2.5% FBS and stimulated with 30 ng/ml FGF8b in the absence or presence of increasing concentrations of ARPCA or ARPVA. S115 cells were seeded at 15000 cells/cm^2 in medium containing 4% hormone-deprived dextran-coated charcoal-stripped heat inactivated FBS, followed by 24 h serum starvation in 1:1 mixture of serum-free Ham's F12 and DMEM. Cells were stimulated for 48 h with 30 ng/ml FGF8b or 10 nM DHT in the presence or absence of different concentrations of ARPCA or ARPVA (as specified in the corresponding figures). Viable cell counts were obtained by the counting function of the MACSQuant® Analyzer (Miltenyi Biotec, Bergisch-Gladbach, Germany, EU).

[1] = system: chick embryo chorioallantoic membrane (CAM); assay: Chick embryo CAM assay with growth factor alginate implants; type: in vivo; settings: 4.5 pmoles FGF8b/plug; ARPCA 80 or 140 pmoles, ARPVA 140 pmoles; vessels counted at day 14
Experimental: (§2) Alginate plugs containing vehicle, FGF8b (4.5 pmoles/embryo), VEGF-A (4.5 pmoles/embryo) or S115 cells (2.5×10^4/embryo) in the absence or presence of ARPCA (80 or 140 pmoles/embryo) or ARPVA (140 pmoles/embryo) were placed on the CAM of fertilized white leghorn chicken eggs at day 11 of incubation. At day 14, newly formed blood microvessels converging toward the implant were counted by two observers in a double-blind fashion at 5x magnification under a stereomicroscope (STEMI-SR, x2/0.12; Zeiss) as described.

S115 cells = assay: S115 cell proliferation assay; type: cell-based, mouse; settings: 30 ng/ml FGF8b or 10 nM DHT, 48 h, viable cell counting
Experimental: as §1

[2] = system: S115 cells grafted onto the chick embryo CAM; assay: CAM assay with DHT-treated S115 cell grafts; type: in vivo; settings: 2.5 × 10^4 cells/embryo; ARPCA 80 or 140 pmoles/embryo, ARPVA 140 pmoles/embryo; day 14
Experimental: as §2

With “Ac-ARPVA-NH2 [Cys4-replaced ARPCA pentapeptide mutant used as a negative control, reference compound]” the “FGF8b binding activity (in words)” value (FGF8b) was “activity was lost”, the “FGF8b binding (Kd)” value (FGF8b) was “nb” and the “effect on HUVEC proliferation in response to FGF8b (in words)” value (HUVECs) was “no significant effect”. For the same substance, the “angiogenic response elicited by FGF8b in the CAM” value [1] was “No inhibitory effect”, the “mitogenic response of S115 cells to FGF8b or DHT” value (S115 cells) was “ineffective” and the “neovascular response elicited by DHT-pretreated S115 cells on the CAM” value [2] was “no effect”.

For Ac-GRPCG-NH2 [Ac-GRPCG-NH2], the “FGF8b binding activity (in words)” value (FGF8b) was “dramatically reduced” and the Kd (FGF8b) was greater than 3 mM.

With Ac-ARPCG-NH2 [Ac-ARPCG-NH2] the “FGF8b binding activity (in words)” value (FGF8b) was “dramatically reduced” and the Kd (FGF8b) was 1.9 ± 0.2 mM.

H-ARPCA-NH2 [H-ARPCA-NH2] was tested, and the “FGF8b binding activity (in words)” value (FGF8b) was “dramatically reduced” and the Kd (FGF8b) was 2.9 ± 0.55 mM.

For Ac-ARPSA-NH2 [Ac-ARPSA-NH2], the “FGF8b binding activity (in words)” value (FGF8b) was “activity was lost” and the “FGF8b binding (Kd)” value (FGF8b) was “nb”.

In the case of Ac-ARPMA-NH2 [Ac-ARPMA-NH2], the “FGF8b binding activity (in words)” value (FGF8b) is reported as “activity was lost” and the Kd (FGF8b) is reported as greater than 3 mM.

Ac-ARACA-NH2 [Ac-ARACA-NH2] was tested, and the “FGF8b binding activity (in words)” value (FGF8b) was “activity was lost” and the Kd (FGF8b) was greater than 3 mM.

In the case of Ac-ARGCA-NH2 [Ac-ARGCA-NH2], the “FGF8b binding activity (in words)” value (FGF8b) is reported as “activity was lost” and the Kd (FGF8b) is reported as greater than 3 mM.

Ac-APCRA-NH2 [Ac-APCRA-NH2] was tested, and the Kd (FGF8b) was greater than 3 mM.
